Reference: patent US20050187161A1, “Biopanning as an approach to study the pathogenesis of and produce novel treatment modalities for invasive Aspergillosis” (priority 2003, published 2005)
Ends that are not written are not given here.

System: A. fumigatus conidia
Experiment: BRASIL selection of CX7C phage display library on A. fumigatus conidia
Format: binding, Aspergillus fumigatus
Conditions: after 4 selection rounds, clones with the motif / 40 random phage clones sequenced
Protocol: (§1) To identify potential host ligands that bind on the surface of A. fumigatus conidia and hyphae, a phage display library (CX7C) for A. fumigatus conidia and hyphae binding ligands using BRASIL is screened. The Aspergillus fumigatus clinical isolate AF293 (currently being used in the Aspergillus sequencing project, provided kindly by Dr. D. Denning, Manchester, UK.) is plated on YAG plates at 37° C. for 3 days and conidia are collected. Conidia (suspensions of 10^4 conidia/ml) are incubated at 37° C. for 16-20 hours in liquid YAG medium to allow for germination to hyphae. Conidia or hyphae, collected as described earlier, were then incubated with 10^9 transducing units (TU) of CX7C phage display library (Arap et al., 2002). A phage-conidia/hyphae suspension in an upper aqueous phase is centrifuged through a non-miscible organic phase with an intermediate specific density. Upon optimized centrifugation conditions conidia or hyphae entered the lower organic phase and pellet at the bottom of the tube, carrying with them only the specifically bound phage (FIG. 10). Dibutylphtalate:Cyclohexane ratio of the organic phase is preferably 6:1. Hyphae needed 100,000 g for pelleting as compared to 10,000 g for conidia (FIG. 10). The conidia/hyphae pellet is then recovered (after freezing, FIG. 10), and the phage is rescued by infection of E. coli K91kan bacteria (FIG. 1). Amplified phage was then used for subsequent rounds of selection (FIG. 10)
(§2) Infected E. coli K91Kan were incubated overnight in LB medium with kanamycin as selection marker (70 μg/ml), tetracycline that served as inducer of phage multiplication (40 μg/ml, the phage also contains the tetracycline resistance gene tetR), and voriconazole for suppression of conidial and hyphal growth (4 μg/ml). The next day, the phage was first separated from E. coli by centrifuigation, recovered using PEG/NaCl, and finally tittrated (to 109 TU units/μl) in order to be used in subsequent selection rounds.
(§3) After 4 rounds of selection for conidia 5 rounds for hyphae, peptide-inserts of 40 random phage clones (each for conidia and hyphae) were sequenced and analyzed for peptide sequences according to enrichment and by ClustalW sequence alignment. Selected motifs were then used to search non-redundant protein databanks.

| Compound | Times identified |
| --- | --- |
| GGWGPGS (listed as Aspergillus fumigatus) | 2/40 |
| SSGDRTA (listed as Aspergillus fumigatus) | 2/40 |
| ELLRRGGS (ELRRGGS; listed as Aspergillus fumigatus) | 2/40 |
| LLSATPS (listed as Aspergillus fumigatus) | 8/40 |
| SLVRGGT (listed as Aspergillus fumigatus) | 2/40 |
| IGRAPQM (listed as Aspergillus fumigatus) | 2/40 |
| GARASGS (listed as Aspergillus fumigatus) | 4/40 |
| WGHSRDE (not fully specified (N-terminus, C-terminus, bridges); listed as Aspergillus fumigatus) [synthetic peptide used as …] | 12/40 |

System: A. fumigatus hyphae
Experiment: not given
Conditions: Bowman et al., 2002; cited from earlier work

| Compound | viability of growing A. fumigatus hyphae by DiBAC staining |
| --- | --- |
| CC[C@H](C)C[C@H](C)CCCCCCCCC(=O)N[C@H]1C[C@@H](O)[C@@H](NCCN)NC(=O)[C@@H]2[C@@H](O)CCN2C(=O)[C@H]([C@H](O)CCN)NC(=O)[C@H]([C@H](O)[C@@H](O)c2ccc(O)cc2)NC(=O)[C@@H]2C[C@@H](O)CN2C(=O)[C@H]([C@@H](C)O)NC1=O [CAS, Caspofungin] | kills the apical tips of hyphae |

System: AF293 conidia
Experiment: Inhibition of WGHSRDE phage binding on AF293 conidia by synthetic peptide
Design: species or system Aspergillus fumigatus
Conditions: FIG. 13; synthetic peptide 0.1, 1, 10 and 100 μM
Protocol: To validate that the CWGHSRDEC (SEQ ID NO:1) phage is mediating specific binding to AF293 conidia, the CWGHSRDEC (SEQ ID NO:) phage and the AF293 conidia are co-incubated in the presence of increasing concentrations of the CWGHSRDEC (SEQ ID NO: 1) peptide. A decrease in the amount of CWGHSRDEC (SEQ ID NO: 1) phage binding on the surface of AF293 conidia after adding the CWGHSRDEC (SEQ ID NO:1) peptide indicates the CWGHSRDEC (SEQ ID NO:1) peptide binds to the surface of AF293 conidia thus preventing the corresponding phage from binding on these sites.
Protocol: Increasing concentrations of the synthetic CWGHSRDEC (SEQ ID NO:1) peptide or a control scramble peptide (e.g., CLLSATPSC (SEQ ID NO:)) (0.1, 1, 10 and 100 μM) is incubated with 200 μl of a 5×10^8 AF293 conidia/ml solution in 1% BSA/PBS for 1 hour at room temperature and 10^8 TU of CWGHSRDEC (SEQ ID NO:1) phage is added and incubated for 2 hours at room temperature. The conidia/phage suspension is centrifuged over an organic phase for 10 min at 10,000 g. Pelleted conidia/phage is used for k91kan infection. The BRASIL method is followed as previously mentioned. A potential decrease in the phage binding on AF293 conidia as a function of the addition of the CWGHSRDEC (SEQ ID NO:1) peptide is graphed as shown in FIG. 13 (Giordano et al, 2001): […]

| Compound | inhibition of WGHSRDE phage binding on AF293 conidia |
| --- | --- |
| WGHSRDE (not fully specified (N-terminus, C-terminus, bridges); listed as Aspergillus fumigatus) [synthetic peptide used as …] | specific inhibition |

System: IA
Experiment: not given
Conditions: Abruzzo et al., 1997; cited from earlier work

| Compound | efficacy in animal models of IA |
| --- | --- |
| CC[C@H](C)C[C@H](C)CCCCCCCCC(=O)N[C@H]1C[C@@H](O)[C@@H](NCCN)NC(=O)[C@@H]2[C@@H](O)CCN2C(=O)[C@H]([C@H](O)CCN)NC(=O)[C@H]([C@H](O)[C@@H](O)c2ccc(O)cc2)NC(=O)[C@@H]2C[C@@H](O)CN2C(=O)[C@H]([C@@H](C)O)NC1=O [CAS, Caspofungin] | shown efficacy |

System: A. fumigatus hyphae
Experiment: BRASIL selection of CX7C phage display library on A. fumigatus hyphae
Format: binding, Aspergillus fumigatus
Conditions: after 5 selection rounds, clones with the motif / 40 random phage clones sequenced
Protocol: as §1, §2, §3

| Compound | Times identified |
| --- | --- |
| NPGYWGN (listed as Aspergillus fumigatus) | 1/40 |
| DLTHVSA (listed as Aspergillus fumigatus) | 1/40 |
| XCDSSVS (not fully specified; X: residue not identified in the source; listed as Aspergillus fumigatus) | 1/40 |
| VGVEYRT (listed as Aspergillus fumigatus) | 1/40 |
| VVGSADG (listed as Aspergillus fumigatus) | 1/40 |
| GTSRWLR (listed as Aspergillus fumigatus) | 1/40 |
| GGRLGPF (listed as Aspergillus fumigatus) | 2/40 |
| ISTFARG (listed as Aspergillus fumigatus) | 1/40 |

System: Aspergillus
Experiment: not given
Conditions: Espinel-Ingroff, 1998; cited from earlier work

| Compound | Aspergillus growth in vitro |
| --- | --- |
| CC[C@H](C)C[C@H](C)CCCCCCCCC(=O)N[C@H]1C[C@@H](O)[C@@H](NCCN)NC(=O)[C@@H]2[C@@H](O)CCN2C(=O)[C@H]([C@H](O)CCN)NC(=O)[C@H]([C@H](O)[C@@H](O)c2ccc(O)cc2)NC(=O)[C@@H]2C[C@@H](O)CN2C(=O)[C@H]([C@@H](C)O)NC1=O [CAS, Caspofungin] | growth reduction |
